Each sequence was assayed on mitochondria or chloroplast of Chlamydomonas reinhardtii (assay: Subcellular localization of Venus reporter by epifluorescence microscopy (manual targeting assignment)). Conditions: manual targeting assignment of the Venus reporter construct in Chlamydomonas: Neither / Mitochondria / Chloroplast / Dual, (partial) = partial targeting.
Type: cell-based
Source text: In a bid to keep peptidase recognition sites intact, C-terminal elements were designed to start 10 residues upstream of the cleavage site, even though this slightly truncates TP helices. Peptides carrying the 15-amino-acid cTP N-terminus (cTP-N) will be denoted ^cP. Similarly, peptides with C-terminal elements from RCA1-cTP (cTP-C) or CAG2-mTP (mTP-C) will be denoted P^c or P^m, respectively. Peptide variants are used to drive the subcellular localization of a Venus fluorescent reporter protein, which was assessed using fluorescence microscopy; in Figure 2, an executive overview of observed Venus localization is presented for all constructs. […] Here, we use automated image segmentation to validate our subcellular localization assessment (Supplemental Figure 2, Supplemental text). […] The reader will be asked to return to Figure 2 throughout, with Figures 3 and 4 providing selected micrographs as examples highlighting particular points of interest.
Chlamydomonas TP sequences were amplified from genomic DNA extracted from strain T222+ (CC-5101). Templates for codon-optimized HA-RAMP, RP, and R→K modified TP sequences were obtained by gene synthesis (Eurofins Genomics). Correct assembly was verified by sequencing (Eurofins Genomics). Linear transformation cassettes were generated through restriction digestion with EcoRV (New England Biolabs).
Constructs were transformed into wild-type strain T222+ (CC-5101) using a protocol described previously ([Onishi and Pringle, 2016]), except using 4 μl of DNA at 2 μg/μl.
Strains with suspected mitochondrial targeting were treated with 0.1 μM MitoTracker Red CMXRos (Thermo Fisher Scientific) in growth medium for 30 min in the dark and washed with TAP prior to taking images.
Legend for Fig. S3 – S20. Three independent transformant lines (Strains 1-3) are shown for each combination of modifications (A-L), represented by a cartoon and a shorthand description (cf. Fig.
2). Where a construct was interpreted as generating reporter localization in mitochondria or […]
Epifluorescence microscopy images of typical cells for each strain are shown. MitoTracker fluorescence, false-coloured in cyan, indicates the position of mitochondria (although parts of the cell exterior are sometimes also stained). False-coloured yellow fluorescence from the Venus channel reports on the subcellular localization of the fluorescent reporter. Chlorophyll autofluorescence, shown in magenta, indicates the location of the chloroplast. Scale bars are 5µm. Brightness (Br.) was adjusted for clarity: fluorescence intensity values were restricted to the range shown for each channel by matching coloured rectangles. Intensity scales to 0 at the bottom of the panel, and to 65535 at the top.
On the right-hand side, quantitative information associated with each construct is shown. Data was normalized such that averages range from 0 to 1 across all constructs (cf. Fig S2). Individual cell measurements may exceed this range; for clarity, the range shown here is limited to -0.5 to 1.5, with outliers that have more extreme values shown as lying beyond a dashed line. Strain 1 is plotted as circles, strain 2 as squares, and strain 3 as diamonds. Venus: Fluorescence plate reader data of transformants screened for this construct (Venus fluorescence, accounting for cell density using linear regression of OD750 and chlorophyll fluorescence trained on ‘no venus’ control transformants). Transformants that were not selected after screening are shown as small grey circles. A colour code ranging from white (low Venus fluorescence) to black (high Venus fluorescence) is used for strains 1-3 and the average thereof. Automated image quantification data: pyr/chl: Venus channel signal in the pyrenoid relative to in the chlorophyll region; mt/cell: Venus channel signal in mitochondria relative to the whole cell. Each point corresponds to a single cell.
The colour code code is the same as that below distributions in Fig. S2, i.e. blue highlights the […]

Row | Sequence | Localisation
1 | MQVTMKSSAVSGQKVGGAKVATK [c.CH.K] | Neither
2 | MQVTMKSSAVSGQKVGGAKVATKLTQTAESFRGVSSQFFDAPNGPSVKQVLIEDEW [c.CH.K.m] | Neither
3 | MQVTMKSSAVSGQKVGGAKVATKSVKKAQLQVVASSKKQMGKWKSIDAGVDASDDQ [c.CH.K.c] | Chloroplast (partial)
4 | MQVTMKSSAVSGQRVALWRTMLRRLGTMALHAGRAAFGAAADTISQ [c.DDM.R] | Mitochondria (partial)
5 | MQVTMKSSAVSGQRVALWRTMLRRLGTMALHAGRAAFGAAADTISQLTQTAESFRGVSSQFFDAPNGPSVKQVLIEDEW [c.DDM.R.m] | Neither
6 | MQVTMKSSAVSGQRVALWRTMLRRLGTMALHAGRAAFGAAADTISQSVRRAQLQVVASSRKQMGRWRSIDAGVDASDDQ [c.DDM.R.c] | Chloroplast
7 | MQVTMKSSAVSGQRVDEVNNDNCRIRFRGDISSESDRMNINY [c.RP2.R] | Neither
8 | MQVTMKSSAVSGQRVDEVNNDNCRIRFRGDISSESDRMNINYLTQTAESFRGVSSQFFDAPNGPSVKQVLIEDEW [c.RP2.R.m] | Neither
9 | MQVTMKSSAVSGQRVDEVNNDNCRIRFRGDISSESDRMNINYSVRRAQLQVVASSRKQMGRWRSIDAGVDASDDQ [c.RP2.R.c] | Neither
10 | MQVTMKSSAVSGQRVGGARVATR [c.CH.R] | Neither
11 | MQVTMKSSAVSGQRVGGARVATRLTQTAESFRGVSSQFFDAPNGPSVKQVLIEDEW [c.CH.R.m] | Neither
12 | MQVTMKSSAVSGQRVGGARVATRSVRRAQLQVVASSRKQMGRWRSIDAGVDASDDQ [c.CH.R.c] | Chloroplast
13 | MQVTMKSSAVSGQRVGRIPVRAIRRAGAAIGRGLRAINIASTAHDVYSFFRPRHRRR [c.SIM.R] | Chloroplast
14 | MQVTMKSSAVSGQRVGRIPVRAIRRAGAAIGRGLRAINIASTAHDVYSFFRPRHRRRLTQTAESFRGVSSQFFDAPNGPSVKQVLIEDEW [c.SIM.R.m] | Chloroplast
15 | MQVTMKSSAVSGQRVGRIPVRAIRRAGAAIGRGLRAINIASTAHDVYSFFRPRHRRRSVRRAQLQVVASSRKQMGRWRSIDAGVDASDDQ [c.SIM.R.c] | Chloroplast
16 | MQVTMKSSAVSGQRVLTQTAESFRGVSSQFFDAPNGPSVKQVLIEDEW [c.-.m] | Neither

Same assay, conditions: peptide-Venus reporter construct expressed in Chlamydomonas reinhardtii; manual targeting assignment (Neither / Mitochondria / Chloroplast / Dual; partial = partial targeting)

Row | Sequence | Localisation
17 | MQVTMKSSAVSGQRVALWMTLLKKVLKAAAKAALNAVLVGANA [c.DS4.K] | Neither
18 | MQVTMKSSAVSGQRVALWMTLLKKVLKAAAKAALNAVLVGANALTQTAESFRGVSSQFFDAPNGPSVKQVLIEDEW [c.DS4.K.m] | Neither
19 | MQVTMKSSAVSGQRVALWMTLLRRVLRAAARAALNAVLVGANA [c.DS4.R] | Neither
20 | MQVTMKSSAVSGQRVFLPLLAGLAANFLPKIFCKITRKCSVRRAQLQVVASSRKQMGRWRSIDAGVDASDDQ [c.B1E.K.c] | Chloroplast
21 | MQVTMKSSAVSGQRVGIGKFLHSAKKFGKAFVGEIMNS [c.MII.K] | Mitochondria
22 | MQVTMKSSAVSGQRVGIGKFLHSAKKFGKAFVGEIMNSLTQTAESFRGVSSQFFDAPNGPSVKQVLIEDEW [c.MII.K.m] | Mitochondria (partial)
23 | MQVTMKSSAVSGQRVGIGKFLHSAKKFGKAFVGEIMNSSVRRAQLQVVASSRKQMGRWRSIDAGVDASDDQ [c.MII.K.c] | Chloroplast
24 | MQVTMKSSAVSGQRVGIGRFLHSARRFGRAFVGEIMNS [c.MII.R] | Mitochondria
25 | MQVTMKSSAVSGQRVGIGRFLHSARRFGRAFVGEIMNSLTQTAESFRGVSSQFFDAPNGPSVKQVLIEDEW [c.MII.R.m] | Dual
26 | MQVTMKSSAVSGQRVMGLFSKFNKKKIKSGLIKIIKTAGKEAGLEALRTGIDVIGCKIKGECSVRRAQLQVVASSRKQMGRWRSIDAGVDASDDQ [c.E1S.K.c] | Chloroplast
27 | MQVTMKSSAVSGQRVMGLFSRFNRRRIRSGLIRIIRTAGREAGLEALRTGIDVIGCRIRGECSVRRAQLQVVASSRKQMGRWRSIDAGVDASDDQ [c.E1S.R.c] | Chloroplast

Same assay, conditions: targeting of the Venus reporter fused to the peptide, expressed in Chlamydomonas reinhardtii; manual assignment from epifluorescence microscopy; full or partial

Row | Sequence | Localisation
28 | MQVTMKSSAVSGQRV [c.-] | Neither
29 | MQVTMKSSAVSGQRVAAAAAAAASVRRAQLQVVASSRKQMGRWRSIDAGVDASDDQ [c.AA.c] | Chloroplast (partial)
30 | MQVTMKSSAVSGQRVALWMTLLKKVLKAAAKAALNAVLVGANASVRRAQLQVVASSRKQMGRWRSIDAGVDASDDQ [c.DS4.K.c] | Neither
31 | MQVTMKSSAVSGQRVALWMTLLRRVLRAAARAALNAVLVGANALTQTAESFRGVSSQFFDAPNGPSVKQVLIEDEW [c.DS4.R.m] | Neither
32 | MQVTMKSSAVSGQRVALWMTLLRRVLRAAARAALNAVLVGANASVRRAQLQVVASSRKQMGRWRSIDAGVDASDDQ [c.DS4.R.c] | Neither
33 | MQVTMKSSAVSGQRVDEVNNDNCRIKFKGDISSESDKMNINY [c.RP2.K] | Neither
34 | MQVTMKSSAVSGQRVDEVNNDNCRIKFKGDISSESDKMNINYLTQTAESFRGVSSQFFDAPNGPSVKQVLIEDEW [c.RP2.K.m] | Neither
35 | MQVTMKSSAVSGQRVDEVNNDNCRIKFKGDISSESDKMNINYSVRRAQLQVVASSRKQMGRWRSIDAGVDASDDQ [c.RP2.K.c] | Neither
36 | MQVTMKSSAVSGQRVFLPLLAGLAANFLPKIFCKITRKC [c.B1E.K] | Mitochondria
37 | MQVTMKSSAVSGQRVFLPLLAGLAANFLPKIFCKITRKCLTQTAESFRGVSSQFFDAPNGPSVKQVLIEDEW [c.B1E.K.m] | Dual
38 | MQVTMKSSAVSGQRVFLPLLAGLAANFLPRIFCRITRRC [c.B1E.R] | Mitochondria
39 | MQVTMKSSAVSGQRVFLPLLAGLAANFLPRIFCRITRRCLTQTAESFRGVSSQFFDAPNGPSVKQVLIEDEW [c.B1E.R.m] | Dual
40 | MQVTMKSSAVSGQRVFLPLLAGLAANFLPRIFCRITRRCSVRRAQLQVVASSRKQMGRWRSIDAGVDASDDQ [c.B1E.R.c] | Chloroplast
41 | MQVTMKSSAVSGQRVGIGRFLHSARRFGRAFVGEIMNSSVRRAQLQVVASSRKQMGRWRSIDAGVDASDDQ [c.MII.R.c] | Chloroplast
42 | MQVTMKSSAVSGQRVMALWKTMLKKLGTMALHAGKAAFGAAADTISQ [c.DDM.K] | Neither
43 | MQVTMKSSAVSGQRVMALWKTMLKKLGTMALHAGKAAFGAAADTISQLTQTAESFRGVSSQFFDAPNGPSVKQVLIEDEW [c.DDM.K.m] | Neither
44 | MQVTMKSSAVSGQRVMALWKTMLKKLGTMALHAGKAAFGAAADTISQSVRRAQLQVVASSRKQMGRWRSIDAGVDASDDQ [c.DDM.K.c] | Chloroplast (partial)
45 | MQVTMKSSAVSGQRVMGKIPVKAIKKAGAAIGKGLRAINIASTAHDVYSFFKPKHKKK [c.SIM.K] | Chloroplast (partial)
46 | MQVTMKSSAVSGQRVMGKIPVKAIKKAGAAIGKGLRAINIASTAHDVYSFFKPKHKKKLTQTAESFRGVSSQFFDAPNGPSVKQVLIEDEW [c.SIM.K.m] | Chloroplast
47 | MQVTMKSSAVSGQRVMGKIPVKAIKKAGAAIGKGLRAINIASTAHDVYSFFKPKHKKKSVRRAQLQVVASSRKQMGRWRSIDAGVDASDDQ [c.SIM.K.c] | Chloroplast
48 | MQVTMKSSAVSGQRVMGLFSKFNKKKIKSGLIKIIKTAGKEAGLEALRTGIDVIGCKIKGEC [c.E1S.K] | Neither
49 | MQVTMKSSAVSGQRVMGLFSKFNKKKIKSGLIKIIKTAGKEAGLEALRTGIDVIGCKIKGECLTQTAESFRGVSSQFFDAPNGPSVKQVLIEDEW [c.E1S.K.m] | Chloroplast
50 | MQVTMKSSAVSGQRVMGLFSRFNRRRIRSGLIRIIRTAGREAGLEALRTGIDVIGCRIRGEC [c.E1S.R] | Chloroplast
51 | MQVTMKSSAVSGQRVMGLFSRFNRRRIRSGLIRIIRTAGREAGLEALRTGIDVIGCRIRGECLTQTAESFRGVSSQFFDAPNGPSVKQVLIEDEW [c.E1S.R.m] | Chloroplast

From publication PMC10363480 (Plant Communications, 2023)
